Results on one substance are retold here after patent US7745404B2, “Use of calcitonin and calcitonin-like peptides to treat and prevent multiple sclerosis” (Wisconsin Alumni Research Foundation, priority 2002, dated 2010).

Test [1] relates to EAE in female C57BL6h mice. In words: EAE in female C57BL6h mice, Example 2. It counts as in vivo. How it is done:
To determine the effect of calcitonin on EAE in mice, female mice were maintained as described above. The strain of mouse used in this experiment was C57BL6 which was obtained from Harlan Labs and therefore should be designated C57BL6h. The only difference from the experiment above is that these mice were fed a regular chow diet (Formulab Chow 5008, PMI Labdiet).
(§1) EAE was induced as described above. Mice were injected with 200 ng of B. pertussis toxin on the day of immunization and 48 hours later.
(§2) sCT was prepared as described above. One week after immunization, mice were weighed and the pumps were filled with vehicle, 6 μg/kg of sCT per day of body weight to each mouse. The pumps were surgically placed subcutaneously in the upper back of mice anesthetized with 2% isofluorane. At the end of the study, successful delivery of the sCT was assessed by two methods. First, the fluid volume remaining in the pump reservoirs was measured. Second, the remaining sCT was pooled and intraperitoneally injected into mice that were not included in the initial study. Serum calcium measurements were taken six hours after injection to determine if sCT maintained its bioactivity throughout the study.
Mice were examined daily, for over two weeks, for clinical signs of EAE utilizing the following scoring system described above.
(§3) Blood samples were collected at multiple time-points and prepared and analyzed as described above. Likewise, statistical analysis was performed as noted above.

The test system of test [2] is EAE in female C57BL/6J mice. Put plainly: EAE in female C57BL/6J mice, sCT started prior to immunization, Example 5. It is filed as in vivo. How it is done: To determine the effect of calcitonin in C57BL/6J mice on EAE prior to immunization, female mice were maintained on a standard chow diet prior to and following EAE immunization.
as §1
as §2, with “However, two days prior to” for “One week after”, “vehicle or” for “vehicle,”, “μg/kg per day” for “μg/kg”, “sCT” for “sCT per day”, “into C57BL/6J” for “into”
Mice were examined daily, for over two weeks, for clinical signs of EAE utilizing the scoring system described above.
as §3

For Salmon calcitonin [sCT], the EAE score entry in test [1] (compared to vehicle alone (FIG. 3)) was “delayed and diminished the EAE score”; in test [2] (female C57BL6J mice administered 6 μg/kg of calcitonin from two days prior to immunization, compared to vehicle alone (FIG. 6)), “delayed and diminished the EAE score”. Besides, the “% Sick” value is reported as 25.0% in test [1] (sCT 6 μg/kg per day by minipump from one week after immunization) and 95.0% in test [2] (female C57Bl/6J mice, standard chow, sCT 6 μg/kg per day from two days prior to immunization). Moreover, the Severity in test [1] (sCT 6 μg/kg per day by minipump from one week after immunization, EAE score 0-5) was found to be 2.0 ± 0.7; in test [2] (female C57Bl/6J mice, standard chow, sCT 6 μg/kg per day from two days prior to immunization, EAE score 0-5), 2.9 ± 1.1. For the same substance, the “Mean Onset Day” value in test [1] (sCT 6 μg/kg per day by minipump from one week after immunization, days post immunization) is 14 ± 1 days; in test [2] (female C57Bl/6J mice, standard chow, sCT 6 μg/kg per day from two days prior to immunization, days post immunization), 15 ± 2 days. For the same substance, the Incidence in test [1] (sCT 6 μg/kg per day by minipump from one week after immunization, table title: 0.87% calcium + 1 ng Vitamin D diet (text: regular chow), animals sick/total) was 2/8 sick; in test [2] (female C57Bl/6J mice, standard chow, sCT 6 μg/kg per day by minipump from two days prior to immunization, animals sick/total), 19/20 sick.
